Measurements reported in PubChem BioAssay AID248 (DTP/NCI, 2004).
Values joined by “and” are separate entries in the source; they are usually repeats but may differ in a detail not shown here. Equal entries are not always repeated. Inconclusive results and toxic doses are left out. No stated cut-off is given here; in the data, active means T/C of 150% or more; inactive means T/C below 125%.

Test system: L1210 leukemia ip in BDF1 mice, survival T/C
Assay: NCI In Vivo Anticancer Drug Screen. Data for tumor model L1210 Leukemia (intraperitoneal) in B6D2F1 (BDF1) mice
Settings: endpoint: mean survival time, higher = longer survival
Summary of the method: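 Transplantable tumor model; survival measured in treated vs vehicle control mice. Value = treated/control.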

[1] = dose: 100.0 mg/kg/injection, schedule: Q04DX003 (ip), vehicle: Klucel (hydroxypropylcellulose) (HPC)
[2] = dose: 200.0 mg/kg/injection, schedule: Q04DX003 (ip), vehicle: Klucel (hydroxypropylcellulose) (HPC)
[3] = dose: 400.0 mg/kg/injection, schedule: Q04DX003 (ip), vehicle: Klucel (hydroxypropylcellulose) (HPC)
[4] = dose: 100.0 mg/kg/injection, schedule: Q01DX001 (ip), vehicle: saline with Tween-80

Measured: T/C

C/C=C(/C)C(=O)O[C@H]1CC[C@@]2(C)[C@@H]3CC[C@H]4[C@]5(O)C[C@H](O)[C@@]6(O)[C@@H](CN7C[C@@H](C)CC[C@H]7[C@@]6(C)O)[C@]5(O)C[C@@]42O[C@@]13O
inactive: dose: 0.5 mg/kg/injection, schedule: Q01DX001 (ip), vehicle: saline 95 % of control | dose: 1.0 mg/kg/injection, schedule: Q01DX001 (ip), vehicle: saline 98 % of control | dose: 1.5 mg/kg/injection, schedule: Q04DX003 (ip), vehicle: saline with Tween-80 102 % of control | dose: 2.0 mg/kg/injection, schedule: Q01DX001 (ip), vehicle: saline 95 % of control | dose: 4.0 mg/kg/injection, schedule: Q01DX001 (ip), vehicle: saline 101 % of control | dose: 5.0 mg/kg/injection, schedule: Q01DX001 (ip), vehicle: saline 95 % of control

CC(C)C(=O)NNC(=O)C(C)C
inactive: [1] 100 % of control | [2] 108 % of control | [3] 106 % of control

O=C1OC(C(Cl)(Cl)Cl)OC1C(Cl)(Cl)Cl (centres undefined)
inactive: dose: 25.0 mg/kg/injection, schedule: Q01DX001 (ip), vehicle: saline with Tween-80 98 % of control | dose: 50.0 mg/kg/injection, schedule: Q01DX001 (ip), vehicle: saline with Tween-80 96 % of control | [4] 93 % of control

CC(=O)/C(C)=N\NC(=O)c1ccccn1
inactive: dose: 25.0 mg/kg/injection, schedule: Q01DX015 (ip), vehicle: water 119 % of control | dose: 50.0 mg/kg/injection, schedule: Q01DX001 (ip), vehicle: water 108 % of control | dose: 50.0 mg/kg/injection, schedule: Q01DX015 (ip), vehicle: water 108 % of control | dose: 100.0 mg/kg/injection, schedule: Q01DX001 (ip), vehicle: water 121 % of control | dose: 100.0 mg/kg/injection, schedule: Q01DX015 (ip), vehicle: water 119 % of control | dose: 200.0 mg/kg/injection, schedule: Q01DX001 (ip), vehicle: water 108 % of control

CNC(=O)Nc1ncnn1Cc1ccccc1
inactive: dose: 100.0 mg/kg/injection, schedule: Q01DX009 (ip), vehicle: saline 92 % of control | dose: 200.0 mg/kg/injection, schedule: Q01DX009 (ip), vehicle: saline 97 % of control

CCC1CC2CCC(c3cc4c(cc3OC)N(C)C3C(O)(C(=O)OC)C(OC(C)=O)C5(CC)C=CCN6CCC43C65)c3[nH]c4ccccc4c3CCN(C1)C2 (centres undefined)
inactive: dose: 0.8 mg/kg/injection, schedule: Q01DX001 (ip), vehicle: saline 97 % of control | dose: 1.6 mg/kg/injection, schedule: Q01DX001 (ip), vehicle: saline 97 % of control | dose: 3.2 mg/kg/injection, schedule: Q01DX001 (ip), vehicle: saline 97 % of control | dose: 6.4 mg/kg/injection, schedule: Q01DX001 (ip), vehicle: saline 100 % of control

CC(C)OC(=O)C(=O)Nc1cccc(Cl)c1
inactive: dose: 100.0 mg/kg/injection, schedule: Q01DX001 (ip), vehicle: Klucel (hydroxypropylcellulose) (HPC) 108 % of control | dose: 200.0 mg/kg/injection, schedule: Q01DX001 (ip), vehicle: Klucel (hydroxypropylcellulose) (HPC) 95 % of control | dose: 400.0 mg/kg/injection, schedule: Q01DX001 (ip), vehicle: Klucel (hydroxypropylcellulose) (HPC) 95 % of control

O=C(/C=C/C(=O)Oc1ccc(Cl)cc1Cl)Oc1ccc(Cl)cc1Cl
inactive: dose: 100.0 mg/kg/injection, schedule: Q01DX009 (ip), vehicle: Klucel (hydroxypropylcellulose) (HPC) 94 % of control | [1] 111 % of control | dose: 200.0 mg/kg/injection, schedule: Q01DX009 (ip), vehicle: Klucel (hydroxypropylcellulose) (HPC) 95 % of control | [2] 100 % of control | dose: 400.0 mg/kg/injection, schedule: Q01DX009 (ip), vehicle: Klucel (hydroxypropylcellulose) (HPC) 97 % of control | [3] 100 % of control

O=[N+]([O-])c1ccc(Oc2cc(Cl)c(Cl)cc2Cl)c([N+](=O)[O-])c1
inactive: dose: 100.0 mg/kg/injection, schedule: Q01DX001 (ip), vehicle: other 90 % of control | dose: 100.0 mg/kg/injection, schedule: Q04DX003 (ip), vehicle: other 98 % of control | dose: 200.0 mg/kg/injection, schedule: Q01DX001 (ip), vehicle: other 92 % of control | dose: 200.0 mg/kg/injection, schedule: Q04DX003 (ip), vehicle: other 95 % of control | dose: 222.0 mg/kg/injection, schedule: Q01DX Z (ip), vehicle: methylcellulose (MC) 100 % of control | dose: 333.0 mg/kg/injection, schedule: Q01DX Z (ip), vehicle: methylcellulose (MC) 91 % of control | dose: 400.0 mg/kg/injection, schedule: Q01DX001 (ip), vehicle: other 89 % of control and 91 % of control | dose: 400.0 mg/kg/injection, schedule: Q04DX003 (ip), vehicle: other 95 % of control | dose: 500.0 mg/kg/injection, schedule: Q01DX Z (ip), vehicle: methylcellulose (MC) 91 % of control

CCOC(=O)CCSc1ccc(NC(C)=O)cc1
inactive: [4] 103 % of control | dose: 200.0 mg/kg/injection, schedule: Q01DX001 (ip), vehicle: saline with Tween-80 111 % of control | dose: 400.0 mg/kg/injection, schedule: Q01DX001 (ip), vehicle: saline with Tween-80 97 % of control

[O]=[V]([OH])([OH])[OH]
inactive: dose: 2.0 mg/kg/injection, schedule: Q01DX015 (ip), vehicle: saline 101 % of control | dose: 4.0 mg/kg/injection, schedule: Q01DX015 (ip), vehicle: saline 103 % of control | dose: 8.0 mg/kg/injection, schedule: Q01DX015 (ip), vehicle: saline 103 % of control | dose: 12.5 mg/kg/injection, schedule: Q01DX001 (ip), vehicle: saline 113 % of control | dose: 16.0 mg/kg/injection, schedule: Q01DX015 (ip), vehicle: saline 108 % of control | dose: 25.0 mg/kg/injection, schedule: Q01DX001 (ip), vehicle: saline 96 % of control | dose: 32.0 mg/kg/injection, schedule: Q01DX015 (ip), vehicle: saline 103 % of control | dose: 50.0 mg/kg/injection, schedule: Q01DX001 (ip), vehicle: saline 98 % of control | dose: 64.0 mg/kg/injection, schedule: Q01DX015 (ip), vehicle: saline 88 % of control

CC1(C)OC(=O)C(C(N)=O)C1c1ccc(Cl)cc1 (centres undefined)
inactive: dose: 100.0 mg/kg/injection, schedule: Q01DX001 (ip), vehicle: saline 103 % of control | dose: 200.0 mg/kg/injection, schedule: Q01DX001 (ip), vehicle: saline 104 % of control | dose: 400.0 mg/kg/injection, schedule: Q01DX001 (ip), vehicle: saline 103 % of control

CCc1cc[c]([Hg][Cl])o1
inactive: dose: 12.5 mg/kg/injection, schedule: Q01DX001 (ip), vehicle: other 100 % of control | dose: 25.0 mg/kg/injection, schedule: Q01DX001 (ip), vehicle: other 100 % of control

COC(=O)c1ccccc1OC(=O)Nc1ccc(SC)cc1
inactive: dose: 50.0 mg/kg/injection, schedule: Q04DX002 (ip), vehicle: saline with Tween-80 96 % of control and 91 % of control | dose: 100.0 mg/kg/injection, schedule: Q01DX009 (ip), vehicle: saline with Tween-80 96 % of control | dose: 100.0 mg/kg/injection, schedule: Q04DX002 (ip), vehicle: saline with Tween-80 96 % of control and 104 % of control and 86 % of control | dose: 100.0 mg/kg/injection, schedule: Q04DX003 (ip), vehicle: saline with Tween-80 100 % of control | dose: 200.0 mg/kg/injection, schedule: Q01DX009 (ip), vehicle: saline with Tween-80 94 % of control and 89 % of control | dose: 200.0 mg/kg/injection, schedule: Q04DX002 (ip), vehicle: saline with Tween-80 95 % of control and 104 % of control | dose: 200.0 mg/kg/injection, schedule: Q04DX003 (ip), vehicle: saline with Tween-80 98 % of control | dose: 400.0 mg/kg/injection, schedule: Q01DX009 (ip), vehicle: saline with Tween-80 102 % of control and 115 % of control | dose: 400.0 mg/kg/injection, schedule: Q04DX002 (ip), vehicle: saline with Tween-80 93 % of control and 105 % of control and 107 % of control | dose: 400.0 mg/kg/injection, schedule: Q04DX003 (ip), vehicle: saline with Tween-80 97 % of control
